According to patent US11883492B2, “Combination treatment of chemoresistant cancers” (THE REGENTS OF THE UNIVERSITY OF CALIFORNIA, priority 2018, dated 2024):

Key:
PDX5 [1] = assay: Proportion of ROR1+ cells in residual PDX5 tumors after paclitaxel (flow cytometry); type: in vivo, Rag2−/−γc−/− mice; settings: PDX5, mice treated with paclitaxel 13.4 mg/kg; untreated 8.5%±5.8%
Description: (§1) Tumorigenicity Assay. Cells were suspended in Mammary-Epithelial Growth Medium (MEGM), mixed with Matrigel (BD Biosciences, San Diego, CA) at a 1:1 ratio, and then transplanted into the mammary pads of Rag2−/−γc−/− mice. We monitored the mice weekly for the development of tumors. We extirpated the tumor to examine the tumor cells for expression of ROR1 at 10 days after treatment with 13.4 mg/kg paclitaxel via intravenously injection for consecutive 5 days. To examine for metastases, we harvested the lungs of 6 mice from each treatment group at 42 or 48 days post-transplantation and fixed the tissue with 10%-formalin, prior to embedding in paraffin. Each paraffin block was cut into 200-μm sections. Tumor foci were scored in a blinded fashion by a board-certified pathologist. To test whether cirmtuzumab alone or in combination with paclitaxel impaired engraftment of primary breast tumor cells, 1×10^5 single cells isolated from PDX4 or PDX5 were injected into the mammary pads of 4- to 6-week-old Rag2−/−γc−/− mice. When tumor size reached 300 mm3, 13.4 mg/kg paclitaxel was injected intravenously for consecutive 5 days or/and 10 mg/kg of cirmtuzumab was injected intravenously at day 0, day 7 and then biweekly.
(§2) Flow cytometry analysis. […]

PDX4 or PDX5 = assay: CSC features (ALDH1, spheroids, Matrigel invasion, re-engraftment) of PDX tumors from paclitaxel-treated mice; type: in vivo, Rag2−/−γc−/− mice
Description: as §1, §2

tumor cells from PDX4 = assay: Cytotoxicity of paclitaxel on PDX tumor cells in vitro after cirmtuzumab or hIgG; type: cell-based; settings: Homo sapiens
Description: FIG. 10. […] Single cell suspension of PDX4 or PDX5 samples were treated with cirmtuzumab or control antibody with or without increasing concentration of paclitaxel for 24 hours. Data are shown as the mean (±SEM) percentage of viable cells of triplicated samples from each of the treatments as determined by flow cytometry analysis. An asterisk indicates P<0.05 and ** indicates P<0.01 as determined by Student's t-Test.
We treated equivalent numbers of tumor cells from PDX4 or PDX5 with cirmtuzumab or control hIgG at 50 μg/ml overnight and then cultured the cells in separate wells in triplicate with increasing concentrations of paclitaxel.

breast cancer PDX = assay: Capacity of PDX tumor cells from treated mice to form secondary PDX; type: in vivo, Rag2−/−γc−/− mice; settings: cirmtuzumab 10 mg/kg, paclitaxel 13.4 mg/kg or both (FIG. 5C)
From the text: (§3) Patient-Derived xenografts. Four-to-eight-week-old female Rag2−/−γc−/− mice were used in this study following the care and use of laboratory animal guidelines of National Institutes of Health (NIH). The UC San Diego Medical Experimental Animal Care Committee approved the study protocol. The mice were housed in laminar-flow cabinets under specific pathogen-free conditions and fed ad libitum. The PDX were established using mechanically minced fresh breast cancer specimens. Early passage (P1-P5) of primary tumor tissues from these PDX models were mechanically minced, enzymatically and mechanically dissociated using GentleMACS Dissociator (Miltenyi Biotec), in accordance to the manufacturer's instruction. Erythrocytes were removed via density gradient centrifugation in Percoll™ Plus (GE Healthcare Life Sciences, CC-17-5442-01).
Tumorigenicity Assay. Cells were suspended in Mammary-Epithelial Growth Medium (MEGM), mixed with Matrigel (BD Biosciences, San Diego, CA) at a 1:1 ratio, and then transplanted into the mammary pads of Rag2−/−γc−/− mice. We monitored the mice weekly for the development of tumors. We extirpated the tumor to examine the tumor cells for expression of ROR1 at 10 days after treatment with 13.4 mg/kg paclitaxel via intravenously injection for consecutive 5 days. […] Tumor foci were scored in a blinded fashion by a board-certified pathologist. […]

PDX4 [2] = assay: Proportion of ROR1+ cells in residual PDX4 tumors after paclitaxel (flow cytometry); type: in vivo, Rag2−/−γc−/− mice; settings: PDX4, mice treated with paclitaxel 13.4 mg/kg; untreated 4.5%±1.1%
Description: as §1, §2

PDX5 [3] = assay: Tumorigenicity (re-engraftment) assay with tumor cells of PDX5 removed from treated mice; type: in vivo, Rag2−/−γc−/− mice; settings: for Tumor incidence (mice with tumors/mice implanted): cells isolated from PDX5 of paclitaxel-treated mice (Table 6, FIG. 2E)
From the text: as §3, §1

[4] = tested on: breast cancer PDX (PDX4, PDX5); assay: Tumor growth of breast-cancer PDX in mice; type: in vivo, Rag2−/−γc−/− mice
From the text: as §3
as §1, with “When tumor size reached 300 mm3, 13.4 mg/kg paclitaxel was injected intravenously for consecutive 5 days or/and 10 mg/kg of cirmtuzumab was injected intravenously at day 0, day 7 and then biweekly.” left out
Control groups were injected with hIgG instead of cirmtuzumab. The tumor volume (v) was determined using the formula v=(length)×(width)2×0.4.

PDX4 [5] = assay: Tumorigenicity (re-engraftment) assay with tumor cells of PDX4 removed from treated mice; type: in vivo, Rag2−/−γc−/− mice; settings: for Tumor incidence (mice with tumors/mice implanted): cells isolated from PDX4 of paclitaxel-treated mice (Table 6, FIG. 2E)
From the text: as §3, §1

AKT, BMI1 = assay: Wnt5a-induced AKT activation and BMI1 expression (immunoblot); type: cell-based; settings: wt-Hs578T
Description: FIGS. 8A-8B. The figures show Enhanced BMI1 Expression Induced By Wnt5a Is Dependent On Activation Of AKT. (FIG. 8A), BMI1 mRNA level in Hs578T cells treated with Wnt5a at 100 ng/ml at indicated time point were examined by quantitative PCR (qPCR). Data shown were the mean expression levels of BMI1 relative to time 0 samples in triplicate and normalized with respect to GAPDH. Error bars indicate SEM. (FIG. 8B), Hs578T cells were cultured in serum-free medium, pre-treated with or without MK-2206 for 3 hours, and then stimulated with or without Wnt5a at 100 ng/ml for 6 hours. BMI1, pAKT and AKT were examined on these samples via immunoblot analyses. Numbers below the row for AKT provide the ratios of band densities of pAKT to AKT that were normalized to that of samples treated for 0 minutes with Wnt5a. β-Actin served as protein-loading control. Numbers below the row for BMI1 provide the ratios of band densities of BMI1 to β-Actin, normalized with respect to that of samples treated for 0 minutes with Wnt5a.
Immunoblot analyses. Cells used for examination for proteins via immunoblot analysis were treated with control antibody or cirmtuzumab (50 μg/ml) for overnight and then were cultured in medium supplemented with or without recombinant Wnt5a (100 ng/ml). […] The protein concentration was determined using a bicinchoninic acid protein assay (Pierce). […]

**Q.** What does the source list for `CC(=O)O[C@H]1C(=O)[C@@]2(C)[C@H]([C@H](OC(=O)c3ccccc3)[C@]3(O)C[C@H](OC(=O)[C@H](O)[C@@H](NC(=O)c4ccccc4)c4ccccc4)C(C)=C1C3(C)C)[C@]1(OC(C)=O)CO[C@@H]1C[C@@H]2O` [paclitaxel]?
**A.** Proportion of ROR1+ cells in residual tumors (PDX5 [1]): 56.4%±6.4%; Cells able to form spheroids, invade Matrigel or re-engraft in tumors of treated mice (PDX4 or PDX5; versus matched tumors of untreated mice or the original PDX (FIG. 2C-2E)): enriched for cells that could form spheroids, invade Matrigel, or re-engraft; Proportion of ALDH1-expressing cells in tumors of treated mice (PDX4 or PDX5; versus matched tumors of untreated mice or the original PDX (FIG. 7J)): higher proportions of ALDH1-expressing cells; IC50 (tumor cells from PDX4; with cirmtuzumab 50 μg/ml overnight (FIG. 10)): 1 ± 1 µM; IC50 (tumor cells from PDX4; with non-specific hIgG 50 μg/ml overnight (FIG. 10)): 23 ± 1 µM; Capacity of tumor cells of PDX that relapsed after therapy to re-engraft immune-deficient mice (breast cancer PDX): readily developed secondary PDX; Proportion of ROR1+ cells in residual tumors (PDX4 [2]): 61.7%±7.0%; Mice that developed PDX/mice engrafted (PDX5 [3]; 1 × 10^4 cells from PDX5 that relapsed after therapy (Table 8, FIG. 5C)): 3/3; Mice that developed PDX/mice engrafted (PDX5 [3]; 1 × 10^5 cells from PDX5 that relapsed after therapy (Table 8, FIG. 5C)): 4/5; Tumor incidence (mice with tumors/mice implanted) (PDX5 [3]; 10^3 cells re-implanted): 4/5; Tumor incidence (mice with tumors/mice implanted) (PDX5 [3]; 10^4 cells re-implanted): 5/5; Frequency of Tumorigenic Cell (PDX5 [3]; PDX5 from paclitaxel-treated mice, ELDA software (Table 6)): 1/622; Tumor response of secondary PDX ([4]; 13.4 mg/kg for five consecutive days when PDX reached 300 mm^3 (FIG. 2A)): tumor regression; Tumor growth / tumor volumes in PDX4- or PDX5-bearing mice ([4]; cirmtuzumab 10 mg/kg, paclitaxel 13.4 mg/kg or the combination (FIG. 5A)): inhibited tumor growth relative to that of control-treated animals; Tumor regrowth after therapy ([4]; tumors derived from PDX with high proportions of ROR1+ cells (e.g. PDX4 or PDX5), 13.4 mg/kg for five days): re-grew shortly after therapy; Mice that developed PDX/mice engrafted (PDX4 [5]; 1 × 10^4 cells from PDX4 that relapsed after therapy (Table 8, FIG. 5C)): 5/5; Mice that developed PDX/mice engrafted (PDX4 [5]; 1 × 10^5 cells from PDX4 that relapsed after therapy (Table 8, FIG. 5C)): 5/5; Tumor incidence (mice with tumors/mice implanted) (PDX4 [5]; 10^3 cells re-implanted): 4/5; Tumor incidence (mice with tumors/mice implanted) (PDX4 [5]; 10^4 cells re-implanted): 5/5; Frequency of Tumorigenic Cell (PDX4 [5]; PDX4 from paclitaxel-treated mice, ELDA software (Table 6)): 1/622

**Q.** How did the “Wnt5a-enhanced expression of BMI1” value (AKT, BMI1) turn out when `NC1(c2ccc(-c3nc4ccn5c(=O)[nH]nc5c4cc3-c3ccccc3)cc2)CCC1` [MK-2206] was run?
**A.** inhibited the capacity of Wnt5a to enhance expression of BMI1

**Q.** And the “Wnt5a-induced activation of AKT” value (AKT, BMI1)?
**A.** impaired the capacity of Wnt5a to induce activation of AKT
